Experiments:
human factor Xa (FXa) = human factor Xa (FXa) (Homo sapiens (Human), UniProt P00742); assay: Determination of the factor Xa inhibition (chromogenic substrate); assay type: biochemical
Procedure: Factor Xa cleaves p-nitroaniline from the chromogenic substrate. The determinations were carried out in microtitre plates as follows.
The test substances, in various concentrations, were dissolved in DMSO and incubated at 25° C. with human FXa (0.5 nmol/l dissolved in 50 mmol/l of tris buffer [C,C,C-tris(hydroxymethyl)-aminomethane], 150 mmol/l of NaCl, 0.1% BSA (bovine serum albumin), pH=8.3) for 10 minutes. Pure DMSO was used as control. The chromogenic substrate (150 μmol 11 of Pefachrome® FXa from Pentapharm) was then added.

[1] = tested on: thrombus formation in arteriovenous shunt; assay: Arteriovenous shunt model (rat), antithrombotic activity; assay type: in vivo; details: po, read-out: ED50 [mg/kg] p.o.
Procedure: b) Determination of the Antithrombotic Activity (In Vivo) b.1) Arteriovenous Shunt Model (Rat) Fasting male rats (strain: HSD CPB:WU) having a weight of 200-250 g were anaesthetized using a Rompun/Ketavet solution (12 mg/kg/50 mg/kg). Thrombus formation was initiated in an arteriovenous shunt in accordance with the method described by Christopher N. Berry et al., Br. J. Pharmacol. (1994), 113, 1209-1214. To this end, the left jugular vein and the right carotid artery were exposed. The two vessels were connected by an extracorporeal shunt using a polyethylene tube (PE 60) of a length of 10 cm. […] The extracorporeal circulation was maintained for 15 minutes. The shunt was then removed and the nylon thread with the thrombus was weighed immediately. The weight of the nylon thread on its own had been determined before the experiment was started. Before the extracorporeal circulation was set up, the test substances were administered to the animals while awake either intravenously via the tail vein or orally using a pharyngeal tube.

Chain of human factor Xa (FXa) (P00742 235-488): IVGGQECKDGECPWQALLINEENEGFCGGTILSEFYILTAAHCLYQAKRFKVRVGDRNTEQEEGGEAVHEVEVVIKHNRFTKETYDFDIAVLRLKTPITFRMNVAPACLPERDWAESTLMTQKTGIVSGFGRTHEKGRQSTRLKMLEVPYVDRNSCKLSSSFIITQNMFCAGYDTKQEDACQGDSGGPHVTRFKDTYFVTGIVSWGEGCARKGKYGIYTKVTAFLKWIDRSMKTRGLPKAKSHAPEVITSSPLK
Chain of human factor Xa (FXa) (P00742 41-179 partner): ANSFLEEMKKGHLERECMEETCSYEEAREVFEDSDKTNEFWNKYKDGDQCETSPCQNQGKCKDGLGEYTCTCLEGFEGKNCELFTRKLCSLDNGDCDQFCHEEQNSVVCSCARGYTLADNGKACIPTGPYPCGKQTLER

## O=C(NC[C@H]1CN(c2ccc(N3CCN(C(=O)CO)CC3)c(F)c2)C(=O)O1)c1ccc(Cl)s1 [Example 48]
Human factor Xa (FXa); human FXa, table of Examples 48-57
  IC50: 120 nM

## O=C(NC[C@H]1CN(c2ccc(N3CCOCC3=O)cc2)C(=O)O1)c1ccc(Cl)s1 [Example 44, 5-Chloro-N-({(5S)-2-oxo-3-[4-(3-oxo-4-morpholinyl)phenyl]-1,3-oxazolidin-5-yl}methyl)-2-thiophenecarboxamide]
[1]
  ED50: 3 mg/kg

## O=C(NC[C@H]1CN(c2ccc(S(=O)(=O)N3CCC3)cc2)C(=O)O1)c1ccc(Cl)s1 [Example 39, 5-Chloro-N-({(5S)-3-[4-(1-azetidinylsulphonyl)phenyl]-2-oxo-1,3-oxazolidin-5-yl}methyl)-2-thiophenecarboxannide]
Human factor Xa (FXa); human FXa 0.5 nmol/l, Pefachrome FXa substrate, 25° C., value printed in example text
  IC50: 840 nM
